Data taken from PubChem BioAssay (NCI).
Where “and” joins values, the source holds several entries; their conditions need not be identical. Equal entries are not always repeated.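 Exposure lasted 48 hours, with cells grown in 96-well plates and compounds tested at five concentrations. GI50 is the concentration that inhibits growth by half. The concentration for full growth arrest is given as TGI.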

Columns and labels:
Assay in all cases: DTP human tumour cell line panel, 48 h
[1] = tested on: EKVX NSCLC
[2] = tested on: MDA-MB-435
[3] = tested on: RPMI-8226 leukemia
[4] = tested on: COLO 205 colon
[5] = tested on: SW-620 colon
[6] = tested on: SK-OV-3 ovarian
[7] = tested on: SR leukemia
[8] = tested on: 786-0 renal
[9] = tested on: SNB-19 CNS
[10] = tested on: KM12 colon
[11] = tested on: CCRF-CEM leukemia
[12] = tested on: U251 CNS
[13] = tested on: SK-MEL-2 melanoma
[14] = tested on: DU-145 prostate
[15] = tested on: SN12C renal
[16] = tested on: SF-295 CNS
[17] = tested on: MCF7 breast
[18] = tested on: SK-MEL-5 melanoma
[19] = tested on: MOLT-4 leukemia
[20] = tested on: CAKI-1 renal
[21] = tested on: HL-60(TB) leukemia
[22] = tested on: LOX IMVI melanoma
[23] = tested on: MDA-MB-231 breast
[24] = tested on: OVCAR-3 ovarian
[25] = tested on: HCT-15 colon
[26] = tested on: TK-10 renal
[27] = tested on: IGROV1 ovarian
[28] = tested on: OVCAR-4 ovarian
[29] = tested on: RXF 393 renal
[30] = tested on: SF-268 CNS
[31] = tested on: ACHN renal
[32] = tested on: MALME-3M melanoma
[33] = tested on: HCC-2998 colon
[34] = tested on: HCT-116 colon
[35] = tested on: NCI/ADR-RES ovarian
[36] = tested on: A549 NSCLC
[37] = tested on: HS 578T breast
[38] = tested on: SF-539 CNS
[39] = tested on: SNB-75 CNS
[40] = tested on: HT29 colon
[41] = tested on: SK-MEL-28 melanoma
[42] = tested on: PC-3 prostate
[43] = tested on: NCI-H460 lung
[44] = tested on: HOP-62 NSCLC
[45] = tested on: UACC-257 melanoma
[46] = tested on: OVCAR-8 ovarian
[47] = tested on: OVCAR-5 ovarian
[48] = tested on: UACC-62 melanoma
[49] = tested on: BT-549 breast
[50] = tested on: NCI-H522 lung
[51] = tested on: UO-31 renal
[52] = tested on: HOP-92 NSCLC
[53] = tested on: M14 melanoma
[54] = tested on: T-47D breast
[55] = tested on: NCI-H226 lung
[56] = tested on: K-562 leukemia
[57] = tested on: A498 renal
[58] = tested on: NCI-H23 lung

CS(=O)(=O)N1CCN(Cc2cc3nc(-c4cccc5[nH]ncc45)nc(N4CCOCC4)c3s2)CC1
GI50 [1]: 0.445 µM and 0.577 µM | TGI [1]: > 100 µM | GI50 [2]: 0.728 µM and 0.276 µM | TGI [2]: > 100 µM | GI50 [3]: 2 µM and 1.94 µM | TGI [3]: > 22.2 µM | GI50 [4]: 0.499 µM and 0.163 µM | TGI [4]: > 100 µM | GI50 [5]: 1.29 µM and 0.484 µM | TGI [5]: > 100 µM | GI50 [6]: 0.243 µM and 0.145 µM | TGI [6]: 3.84 µM and 1.68 µM | GI50 [7]: 2.46 µM and 2.02 µM | TGI [7]: > 100 µM | GI50 [8]: 0.281 µM | TGI [8]: 2.46 µM | GI50 [9]: 2.91 µM and 0.896 µM | TGI [9]: > 100 µM | GI50 [10]: 1.36 µM and 0.754 µM | TGI [10]: > 100 µM | GI50 [11]: 2.3 µM and 0.909 µM | TGI [11]: > 100 µM | GI50 [12]: 1.05 µM and 0.684 µM | TGI [12]: > 100 µM | GI50 [13]: 1.27 µM and 0.325 µM | TGI [13]: > 100 µM | GI50 [14]: 0.61 µM and 0.427 µM | TGI [14]: > 100 µM | GI50 [15]: 0.493 µM and 0.224 µM | TGI [15]: > 100 µM | GI50 [16]: 0.262 µM and 0.318 µM | TGI [16]: 3.11 µM and 3.62 µM | GI50 [17]: 0.0766 µM and 0.083 µM | TGI [17]: > 100 µM | GI50 [18]: 1.11 µM and 0.537 µM | TGI [18]: > 100 µM | GI50 [19]: 0.315 µM and 0.302 µM | TGI [19]: > 100 µM | GI50 [20]: 0.419 µM and 0.209 µM | TGI [20]: 3.92 µM and > 3.95 µM | GI50 [21]: 0.121 µM and 0.052 µM | TGI [21]: > 100 µM | GI50 [22]: 0.456 µM and 0.32 µM | TGI [22]: > 100 µM | GI50 [23]: 2.62 µM and 0.504 µM | TGI [23]: > 100 µM | GI50 [24]: 0.245 µM and 0.194 µM | TGI [24]: 3.82 µM and > 5.15 µM | GI50 [25]: 0.721 µM and 0.453 µM | TGI [25]: > 100 µM | GI50 [26]: 0.11 µM and 0.0949 µM | TGI [26]: 0.789 µM and 0.74 µM | GI50 [27]: 0.0571 µM and 0.0389 µM | TGI [27]: 0.425 µM and 0.301 µM | GI50 [28]: 2.77 µM and 0.894 µM | TGI [28]: > 100 µM | GI50 [29]: 0.209 µM and 0.165 µM | TGI [29]: 1.54 µM and 1.03 µM | GI50 [30]: 1.59 µM and 0.625 µM | TGI [30]: > 100 µM | GI50 [31]: 0.382 µM and 0.319 µM | TGI [31]: > 100 µM | GI50 [32]: 0.311 µM and 0.128 µM | GI50 [33]: 0.614 µM and 0.153 µM | TGI [33]: > 100 µM | GI50 [34]: 1.72 µM and 0.494 µM | TGI [34]: > 100 µM | GI50 [35]: 1.76 µM and 1.44 µM | TGI [35]: > 100 µM | GI50 [36]: 0.477 µM and 0.43 µM | TGI [36]: 3.71 µM and > 5.34 µM | GI50 [37]: 0.134 µM and 0.148 µM | TGI [37]: 1.44 µM and 1.11 µM | GI50 [38]: 0.444 µM and 0.268 µM | GI50 [39]: 0.0918 µM and 0.0301 µM | TGI [39]: 3.28 µM and 0.495 µM | GI50 [40]: 0.284 µM and 0.101 µM | TGI [40]: > 100 µM | GI50 [41]: 0.345 µM and 0.133 µM | GI50 [42]: 0.218 µM and 0.26 µM | TGI [42]: > 100 µM | GI50 [43]: 0.357 µM and 0.311 µM | TGI [43]: > 100 µM | GI50 [44]: 0.655 µM and 0.573 µM | TGI [44]: > 100 µM | GI50 [45]: 0.184 µM and 0.162 µM | TGI [45]: 2.77 µM and > 2.32 µM | GI50 [46]: 0.789 µM and 0.594 µM | TGI [46]: > 100 µM | GI50 [47]: 0.357 µM and 0.234 µM | TGI [47]: > 100 µM | TGI [48]: 0.244 µM | GI50 [49]: 0.271 µM and 0.231 µM | TGI [49]: > 100 µM | GI50 [50]: 0.602 µM and 0.37 µM | TGI [50]: > 28 µM | GI50 [51]: 0.174 µM and 0.105 µM | TGI [51]: > 4.03 µM | GI50 [52]: 0.0232 µM and 0.0547 µM | TGI [52]: 0.197 µM and 0.508 µM | GI50 [53]: 2.13 µM and 0.438 µM | TGI [53]: > 100 µM | GI50 [54]: 0.0668 µM and 0.035 µM | TGI [54]: 0.505 µM | GI50 [55]: 0.408 µM and 0.473 µM | TGI [55]: > 21.6 µM | GI50 [56]: 3.91 µM and > 2.17 µM | TGI [56]: > 100 µM | GI50 [57]: 0.0618 µM and 0.0581 µM | TGI [57]: 0.433 µM and 0.389 µM | GI50 [58]: 1.37 µM and 0.603 µM | TGI [58]: > 100 µM

C(=N/Nc1ncnc2nc[nH]c12)/c1ccccn1
GI50 [1]: 0.386 µM | TGI [1]: 40.5 µM | GI50 [2]: 1.08 µM | TGI [2]: > 100 µM | GI50 [3]: 3.9 µM | TGI [3]: > 100 µM | GI50 [4]: 1.72 µM | TGI [4]: > 100 µM | GI50 [5]: 1.71 µM | TGI [5]: > 100 µM | GI50 [6]: 0.456 µM | TGI [6]: 15.6 µM | GI50 [7]: 0.4 µM | TGI [7]: > 100 µM | GI50 [8]: 1.65 µM | TGI [8]: 5.43 µM | GI50 [9]: 0.98 µM | TGI [9]: > 100 µM | GI50 [10]: 0.661 µM | TGI [10]: > 100 µM | GI50 [11]: 0.227 µM | TGI [11]: > 100 µM | GI50 [12]: 0.569 µM | TGI [12]: > 100 µM | GI50 [13]: 1.34 µM | TGI [13]: > 100 µM | GI50 [14]: 0.596 µM | TGI [14]: > 49.3 µM | GI50 [15]: 0.84 µM | TGI [15]: > 65.1 µM | GI50 [16]: 0.774 µM | TGI [16]: 16 µM | GI50 [17]: 0.444 µM | TGI [17]: > 100 µM | GI50 [18]: 1.28 µM | TGI [18]: 4.61 µM | GI50 [19]: 0.367 µM | TGI [19]: > 100 µM | GI50 [20]: 0.308 µM | TGI [20]: 2.64 µM | GI50 [21]: 1.01 µM | TGI [21]: 7.07 µM | GI50 [22]: 0.525 µM | TGI [22]: > 100 µM | GI50 [23]: 0.609 µM | TGI [23]: > 100 µM | GI50 [24]: 0.421 µM | TGI [24]: > 47 µM | GI50 [25]: 1.11 µM | TGI [25]: > 100 µM | GI50 [26]: 0.452 µM | TGI [26]: > 100 µM | GI50 [27]: 2.11 µM | TGI [27]: 20.9 µM | GI50 [28]: 0.3 µM | TGI [28]: > 100 µM | GI50 [29]: 1.92 µM | TGI [29]: 7.32 µM | GI50 [30]: 0.342 µM | TGI [30]: > 23.7 µM | GI50 [31]: 1.19 µM | TGI [31]: 14.1 µM | GI50 [32]: 0.268 µM | TGI [32]: 5.62 µM | GI50 [33]: 0.422 µM | TGI [33]: > 36.8 µM | GI50 [34]: 0.46 µM | TGI [34]: > 100 µM | GI50 [35]: 0.382 µM | TGI [35]: > 22.3 µM | GI50 [36]: 1.27 µM | TGI [36]: > 100 µM | GI50 [37]: 12.7 µM | TGI [37]: > 100 µM | GI50 [38]: 1.3 µM | TGI [38]: 5.72 µM | GI50 [39]: 1.73 µM | TGI [39]: 35.1 µM | GI50 [40]: 4.07 µM | TGI [40]: > 100 µM | GI50 [41]: 1.2 µM | TGI [41]: > 100 µM | GI50 [42]: 0.786 µM | TGI [42]: > 100 µM | GI50 [43]: 3.29 µM | TGI [43]: > 50.8 µM | GI50 [44]: 0.687 µM | TGI [44]: > 100 µM | GI50 [45]: 1.87 µM | TGI [45]: 7.96 µM | GI50 [46]: 0.393 µM | TGI [46]: > 100 µM | GI50 [47]: 1.02 µM | TGI [47]: > 100 µM | GI50 [48]: 0.514 µM | TGI [48]: 3.24 µM | GI50 [49]: 1.86 µM | TGI [49]: > 100 µM | GI50 [50]: 0.551 µM | TGI [50]: > 100 µM | GI50 [51]: 0.265 µM | TGI [51]: 3.09 µM | GI50 [52]: 3.14 µM | TGI [52]: 8.72 µM | GI50 [53]: 0.766 µM | TGI [53]: 3.63 µM | GI50 [54]: 0.308 µM | TGI [54]: > 100 µM | GI50 [55]: 1.57 µM | TGI [55]: 53.1 µM | GI50 [56]: 0.803 µM | TGI [56]: > 100 µM | GI50 [57]: 6.17 µM | TGI [57]: > 100 µM | GI50 [58]: 2.91 µM | TGI [58]: > 100 µM
